# US9394352B2, “Immunogenic POTE peptides and methods of use” (The United States of America, as represented by the …, priority 2010, dated 2016)
# Tests used:
# [1] = tested on: C1R.AAD cells pulsed with peptide; assay: 4-hour 51Cr release CTL assay after one week in vitro stimulation; format: cell-based, human; settings: CTLs from immunized AAD mice, restimulated 7 days with 1.0 μM peptide; targets pulsed with 1.0 μM peptide
# Protocol: FIGS. 3A and 3B are graphs showing immunogenicity of the wild type and enhanced POTE 252 epitopes in AAD mice. AAD mice were immunized subcutaneously with a mixture of peptide and cytokines in adjuvant as described in Example 1. (FIG. 3A) Two weeks after the second boost, splenocytes pooled from three mice were restimulated with splenocytes of naïve AAD mice pulsed with 1.0 μM of each peptide at different effector to target (E/T) ratios. Cells were cultured in anti-mouse IFN-γ antibody coated ELISPOT™ plates. After overnight culture, biotinylated anti-mouse IFN-γ antibodies were added to each well. ELISPOT™ substrates were added to develop the color and spots were counted by an ELISPOT™ reader (AID ELISPOT™ reader system). Figures show numbers of spots per million cells. (FIG. 3B) CTL cross-reactivity on each peptide. Two weeks after the second boost, pooled spleen cells from three mice were restimulated with irradiated splenocytes pulsed with 1.0 μM of peptide for 7 days. In a 4-hour ^51Cr release assay, CIR.AAD cells were pulsed with 1.0 μM of peptide and labeled with ^51Cr. After washing three times, target cells were mixed with different numbers of effector cells and then cultured for 4 hours before harvesting.
# FIGS. 4A-4D are graphs showing immunogenicity of the wild type and enhanced POTE 553 epitopes in AAD mice. AAD mice were immunized subcutaneously with a mixture of peptide and cytokines in adjuvant. (FIGS. 4A and 4B) Two weeks after the second boost, splenocytes pooled from three mice were restimulated with splenocytes of naïve AAD mice pulsed with 10 nM to 1.0 μM of each peptide at different E/T ratios. Cells were cultured in anti-mouse IFN-γ antibody coated ELISPOT™ plates. After overnight culture, biotinylated anti-mouse IFN-γ antibodies were added to each well. ELISPOT™ substrates were added to develop color and spots were counted by an ELISPOT™ reader (AID ELISPOT™ reader system). Figures show numbers of spots per million cells. (FIGS. 4C and 4D) CTL cross-reactivity on each peptide. Two weeks after the second boost, pooled spleen cells from three mice were restimulated with irradiated splenocytes pulsed with 1.0 μM of peptide for 7 days. In a 4-hour ^51Cr release assay, CIR.AAD cells were pulsed with 1.0 μM of peptide and labeled with ^51Cr. After washing three times, target cells were mixed with different numbers of effector cells and then cultured for 4 hours before harvesting.
# FIGS. 5A and 5B are graphs showing immunogenicity of the POTE 272 epitope in AAD mice. AAD mice were immunized subcutaneously with a mixture of peptide and cytokines in adjuvant. (FIG. 5A) Two weeks after the second boost, splenocytes pooled from three mice were restimulated with splenocytes of naïve AAD mice pulsed with 1.0 μM POTE 272 peptide at different E/T ratios. Cells were cultured in anti-mouse IFN-γ antibody coated ELISPOT™ plates. After overnight culture, biotinylated anti-mouse IFN-γ antibodies were added in each well. ELISPOT™ substrates were added to develop color and spots were counted by an ELISPOT™ reader (AID ELISPOT™ reader system). Figures show numbers of spots per million cells. (FIG. 5B) CTL reactivity on POTE 272 peptide. Two weeks after the second boost, pooled spleen cells from three mice were restimulated with irradiated splenocytes pulsed with 1.0 μM POTE 272 peptide for 7 days. In a 4-hour ^51Cr release assay, CIR.AAD cells were pulsed with 1.0 μM POTE 272 peptide and labeled with ^51Cr. After washing three times, target cells were mixed with different numbers of effector cells and then cultured for 4 hours before harvesting.
# FIGS. 6A and 6B are graphs showing immunogenicity of the wild type and enhanced POTE 323 epitopes in AAD mice. AAD mice were immunized subcutaneously with a mixture of peptide and cytokines in adjuvant. (FIG. 6A) Two weeks after the second boost, splenocytes pooled from three mice were restimulated with splenocytes of naïve AAD mice pulsed with 1.0 μM of each peptide at different E/T ratios. […]
# HLA-A2/POTE252 tetramer = assay: HLA-A2/peptide tetramer stain and TCR Vβ repertoire of CTLs from immunized HHD-2 mice; format: in vivo; settings: after 1-week in vitro stimulation with cognate peptide
# Protocol: FIGS. 7A-7C are FACS plots showing HLA-A2/peptide tetramer staining and T cell receptor (TCR) repertoire determination for POTE 252- and POTE 252-9V-induced CTLs. HHD-2 mice were immunized subcutaneously with a mixture of peptide and cytokines in adjuvant. Two weeks after the second boost, pooled spleen cells from three mice were restimulated with irradiated splenocytes pulsed with 1.0 μM of peptide for 1 week. (FIG. 7A) Percentage of the HLA-A2/POTE252 tetramer-positive cells in the POTE 252- and POTE 252-9V-induced CTLs. (FIG. 7B) TCR Vβ repertoires of the tetramer^+CD8^+ T cells in POTE 252-induced CTLs. (FIG. 7C) TCR Vβ repertoires of the tetramer^+CD8^+ T cells in POTE 252-9V-induced CTLs.
# AAD or HHD-2 mice were immunized subcutaneously (s.c.) in the base of the tail with 100 μl of an emulsion containing 1:1 incomplete Freund's adjuvant (Sigma) and PBS with peptides and cytokines (50 nmol of CTL epitope, 50 nmol of hepatitis B virus core 128-140 helper epitope, 5 μg of mouse interleukin-12, and 5 μg of mouse granulocyte macrophage colony-stimulating factor). Cytokines were purchased from Peprotech (Rocky Hill, N.J.). Mice were boosted 2 weeks later, and the spleens were removed 2 weeks after the boost. For all experiments, groups of three mice were used. […]
sequence,measurement,setting,value
"KLMAKALLL [POTE 252-260, unmodified 9-mer peptide, residues 252-260 of human POTE]",CTL lysis of peptide-pulsed target cells,[1],lysed target cells pulsed with the wild-type POTE 252 as well as POTE 252-9V
same,tetramer-positive CD8+ T cells,HLA-A2/POTE252 tetramer,9.3%
